As a reminder, the IC50 is the midpoint of a concentration-inhibition curve. A word on the IC90: it is the point of the concentration-response curve where the effect stands at 90%.

These results are taken from ChEMBL document CHEMBL4483862, “Open-source discovery of chemical leads for next-generation chemoprotective antimalarials” (2018).

The test system of this experiment is Plasmodium berghei. As to the kind of experiment: Luciferase/luciferin-expressing antifolate-resistant parasites were used to infect a culture of HepG2 cells that were pre-incubated with compounds. Infected hepatocytes emit light due to the luciferase reaction. Assay results are presented as the percent inhibition of light emission compared to control. […]. The format is functional. The settings on record: sporozoite; for IC90: read-out: LUCIFERASE INFECTION ASSAY - IC90.

For `COCCNc1ccc2ncc(-c3ccc(Cl)cc3)n2n1`, the IC90 was 5.92 µM. Moreover, the IC50 (HEPG2TOX_HILL_SLOPE 7.9, HEPG2TOX_R_SQUARED 0.252, PBLUC_HILL_SLOPE 6.86, PBLUC_R_SQUARED 0.283, read-out: LUCIFERASE INFECTION ASSAY - IC50) turned out to be 4.3 µM.
In the case of `Cc1ccc(NC2=CC(=O)CC(c3ccco3)C2)c(N)c1` (stereo not drawn), the IC90 came out at 6.68 µM. Besides, the IC50 (HEPG2TOX_HILL_SLOPE 7.93, HEPG2TOX_R_SQUARED 0.791, PBLUC_HILL_SLOPE 1.82, PBLUC_R_SQUARED 0.701, read-out: LUCIFERASE INFECTION ASSAY - IC50) came out at 2 µM.
`Oc1ccc(-c2cn3c(-c4ccc(Cl)cc4)cnc3cn2)cc1`: the IC90 was found to be 5.63 µM. In addition, the IC50 (HEPG2TOX_HILL_SLOPE 7.91, HEPG2TOX_R_SQUARED 0.667, PBLUC_HILL_SLOPE 4.16, PBLUC_R_SQUARED 0.739, read-out: LUCIFERASE INFECTION ASSAY - IC50) was 3.32 µM.
Consider `O=C(CCN1CCN(c2ccccc2)CC1)NNC(=O)c1ccc(C(F)(F)F)cn1`, for which the IC90 was found to be 7.86 µM. In addition, the IC50 (HEPG2TOX_HILL_SLOPE 7.92, HEPG2TOX_R_SQUARED 0.92, PBLUC_HILL_SLOPE 7.4, PBLUC_R_SQUARED 0.199, read-out: LUCIFERASE INFECTION ASSAY - IC50) came to 5.84 µM.
For `CCCCNC(=O)c1c(NC(=O)c2ccc(OC)cc2)nc2ccc(C)cn12`, the IC90 amounted to 8.55 µM. Moreover, under “HEPG2TOX_HILL_SLOPE 7.85, HEPG2TOX_R_SQUARED 0.829, PBLUC_HILL_SLOPE 17, PBLUC_R_SQUARED 0.0919, read-out: LUCIFERASE INFECTION ASSAY - IC50”, the IC50 stood at 7.51 µM.
On to `CCCCCc1nnc(NC(=O)c2nccnc2N)s1`, for which the IC90 turned out to be 4.56 µM. In addition, the IC50 (HEPG2TOX_HILL_SLOPE 7.97, HEPG2TOX_R_SQUARED 0.296, PBLUC_HILL_SLOPE 11.4, PBLUC_R_SQUARED 0.31, read-out: LUCIFERASE INFECTION ASSAY - IC50) was 3.76 µM.
As to `CN(C)CCNC(=O)c1ccc(-c2cn3c(-c4cccs4)cnc3cn2)cc1`, the IC90 is over 8.43 µM. Besides, the IC50 (HEPG2TOX_HILL_SLOPE 7.97, HEPG2TOX_R_SQUARED 0.151, read-out: LUCIFERASE INFECTION ASSAY - IC50) is over 8.43 µM.
Regarding `COc1ccc2c(C)cc3nnc(SCC(=O)NCC45CC6CC(CC(C6)C4)C5)n3c2c1`, the 90% effect concentration (IC90) is over 10 µM. Further, the IC50 (HEPG2TOX_HILL_SLOPE 7.95, HEPG2TOX_R_SQUARED 0.512, PBLUC_HILL_SLOPE 13.7, PBLUC_R_SQUARED 0.353, read-out: LUCIFERASE INFECTION ASSAY - IC50) was 8.94 µM.
Turning to `O=C1C=C(c2ccc(Cl)cc2)C(=O)N1Nc1ccc(F)cc1`, the IC90 was over 10.4 µM. For the same compound, where the note is “HEPG2TOX_HILL_SLOPE 7.85, HEPG2TOX_R_SQUARED 0.837, PBLUC_HILL_SLOPE 13.2, PBLUC_R_SQUARED 0.145, read-out: LUCIFERASE INFECTION ASSAY - IC50”, the half-maximal inhibitory concentration (IC50) was found to be 10.2 µM.
`Cc1cc(-c2ccccc2)nc(SCc2ccc(C#N)cc2)n1`: the IC90 is 5.95 µM. The IC50 (HEPG2TOX_HILL_SLOPE 7.96, HEPG2TOX_R_SQUARED 0.286, PBLUC_HILL_SLOPE 151, PBLUC_R_SQUARED 0.106, read-out: LUCIFERASE INFECTION ASSAY - IC50) amounted to 5.87 µM.
For the compound `CC(C)(C)CC(=O)Nc1ccc(-c2nc3ccccc3[nH]2)cc1`, the IC90 was 6 µM. Further, under “HEPG2TOX_HILL_SLOPE 7.93, HEPG2TOX_R_SQUARED 0.604, PBLUC_HILL_SLOPE 0.372, PBLUC_R_SQUARED 0.913, read-out: LUCIFERASE INFECTION ASSAY - IC50”, the IC50 worked out at 0.0164 µM.
As for `CC(C)c1ccccc1N(C(=O)C1CC(=O)N(CCc2ccccc2)C1)c1nc2ccccc2s1` (stereo not drawn), the IC90 was over 10 µM. The IC50 (HEPG2TOX_HILL_SLOPE 7.95, HEPG2TOX_R_SQUARED 0.294, read-out: LUCIFERASE INFECTION ASSAY - IC50) is over 10 µM.
In the case of `COc1ccc(Nc2nccc3nc(-c4ccc(C)cc4)[nH]c23)cc1`, the IC90 was over 10 µM. Moreover, the IC50 (HEPG2TOX_HILL_SLOPE 7.88, HEPG2TOX_R_SQUARED 0.839, PBLUC_HILL_SLOPE 3.67, PBLUC_R_SQUARED 0.381, read-out: LUCIFERASE INFECTION ASSAY - IC50) came to 7.4 µM.
Take `O=C(NC(=O)c1cc(Br)cc(Br)c1)Nc1cc(C(F)(F)F)cc(C(F)(F)F)c1`: the IC90 turned out to be 5.3 µM. In addition, the IC50 (HEPG2TOX_HILL_SLOPE 7.89, HEPG2TOX_R_SQUARED 0.4, PBLUC_HILL_SLOPE 3.95, PBLUC_R_SQUARED 0.259, read-out: LUCIFERASE INFECTION ASSAY - IC50) was 3.04 µM.
On to `O=C(Nc1nonc1-c1cccs1)c1ccc(Br)cc1`, for which the IC90 worked out at 6.36 µM. The concentration for half-maximal inhibition (IC50) (HEPG2TOX_HILL_SLOPE 7.96, HEPG2TOX_R_SQUARED 0.814, PBLUC_HILL_SLOPE 7.42, PBLUC_R_SQUARED 0.0569, read-out: LUCIFERASE INFECTION ASSAY - IC50) was found to be 4.73 µM.
Take `COc1ccccc1N(C)S(=O)(=O)c1ccc(C(=O)NNC(=O)c2nn(C)c(=O)c3ccccc23)cc1`: the IC90 is over 10 µM. Moreover, the IC50 (HEPG2TOX_HILL_SLOPE 7.89, HEPG2TOX_R_SQUARED 0.384, read-out: LUCIFERASE INFECTION ASSAY - IC50) is over 10 µM.
On to `COc1ccc(NCC2(c3ccnc(-c4ccccc4Cl)c3)CC2)cc1`, for which the IC90 was 8.59 µM. Besides, the IC50 (HEPG2TOX_HILL_SLOPE 7.95, HEPG2TOX_R_SQUARED 0.722, PBLUC_HILL_SLOPE 6.14, PBLUC_R_SQUARED 0.58, read-out: LUCIFERASE INFECTION ASSAY - IC50) was found to be 6.01 µM.
As for `COc1cc(N2C(=O)C=CC2=O)cc(OC)c1OC`, the IC90 is over 12.5 µM. The IC50 (HEPG2TOX_HILL_SLOPE 7.92, HEPG2TOX_R_SQUARED 0.512, PBLUC_HILL_SLOPE 9.52, PBLUC_R_SQUARED 0.0663, read-out: LUCIFERASE INFECTION ASSAY - IC50) was over 12.5 µM.
As to `Clc1ccc(-c2cnc3cnc(-c4ccc(NCCN5CCOCC5)nc4)cn23)cc1`, the IC90 is 7.4 µM. The IC50 (HEPG2TOX_HILL_SLOPE 7.91, HEPG2TOX_R_SQUARED 0.577, PBLUC_HILL_SLOPE 49, PBLUC_R_SQUARED 0.381, read-out: LUCIFERASE INFECTION ASSAY - IC50) is 7.08 µM.
Regarding `O=C(N/N=C1\CCCCc2ccccc21)c1cc2ccccc2cc1O`, the IC90 is over 10 µM. In addition, under “HEPG2TOX_HILL_SLOPE 7.95, HEPG2TOX_R_SQUARED 0.651, read-out: LUCIFERASE INFECTION ASSAY - IC50”, the IC50 is over 10 µM.
As to `Cn1c2c(cc(-c3ccccc3)c1=O)CN(Cc1cnn(-c3ccc(F)cc3)c1)CC2`, the concentration for an effect of 90% (IC90) is over 7.96 µM. The 50% inhibitory concentration (IC50) (HEPG2TOX_HILL_SLOPE 7.96, HEPG2TOX_R_SQUARED 0.425, PBLUC_HILL_SLOPE 14.6, PBLUC_R_SQUARED 0.0729, read-out: LUCIFERASE INFECTION ASSAY - IC50) was determined as 7.11 µM.
For the compound `CCOc1cccc(-c2cn3c(-c4cnn(C)c4)cnc3cn2)c1`, the IC90 is over 10.3 µM. Further, for the setting “HEPG2TOX_HILL_SLOPE 7.89, HEPG2TOX_R_SQUARED 0.0776, PBLUC_HILL_SLOPE 1.98, PBLUC_R_SQUARED 0.483, read-out: LUCIFERASE INFECTION ASSAY - IC50”, the IC50 is 3.78 µM.
Regarding `CN(C)c1ccc(-c2cnc3cnc(-c4ccc(N)nc4)cn23)cc1`, the IC90 stood at 8.82 µM. Also, where the note is “HEPG2TOX_HILL_SLOPE 7.95, HEPG2TOX_R_SQUARED 0.49, PBLUC_HILL_SLOPE 26.9, PBLUC_R_SQUARED 0.584, read-out: LUCIFERASE INFECTION ASSAY - IC50”, the IC50 turned out to be 8.12 µM.
For the compound `FC(F)(F)Oc1cccc(-c2nc3ccnc(Nc4ccccc4)c3[nH]2)c1`, the IC90 was over 10 µM. Also, the IC50 (HEPG2TOX_HILL_SLOPE 7.94, HEPG2TOX_R_SQUARED 0.491, PBLUC_HILL_SLOPE 12.6, PBLUC_R_SQUARED 0.533, read-out: LUCIFERASE INFECTION ASSAY - IC50) worked out at 8.84 µM.
Turning to `CC(OC(=O)c1cc2ccccc2[nH]1)C(=O)Nc1cccc(C#N)c1` (stereo not drawn), the IC90 is over 10 µM. The IC50 (HEPG2TOX_HILL_SLOPE 7.96, HEPG2TOX_R_SQUARED 0.0358, PBLUC_HILL_SLOPE 3.96, PBLUC_R_SQUARED 0.0932, read-out: LUCIFERASE INFECTION ASSAY - IC50) came out at 8.49 µM.
For `COc1ccc(/C=C2\Oc3cc(O)cc(C)c3C2=O)c(OC)c1`, the IC90 was over 10.6 µM. Moreover, the IC50 (HEPG2TOX_HILL_SLOPE 7.92, HEPG2TOX_R_SQUARED 0.287, PBLUC_HILL_SLOPE 2.15, PBLUC_R_SQUARED 0.542, read-out: LUCIFERASE INFECTION ASSAY - IC50) was determined as 6.5 µM.
For `O=C(COc1ccccc1)Nc1nc2ccccn2c1C(=O)NC1CCCCC1`, the IC90 amounted to 6.99 µM. Also, the IC50 (HEPG2TOX_HILL_SLOPE 7.86, HEPG2TOX_R_SQUARED 0.377, PBLUC_HILL_SLOPE 5.91, PBLUC_R_SQUARED 0.352, read-out: LUCIFERASE INFECTION ASSAY - IC50) worked out at 4.82 µM.
In the case of `N#Cc1cc(C(=O)c2ccc([N+](=O)[O-])cc2)c2nc3ccccc3n2c1N`, the concentration for an effect of 90% (IC90) was over 10 µM. Moreover, the IC50 (HEPG2TOX_HILL_SLOPE 7.9, HEPG2TOX_R_SQUARED 0.276, PBLUC_HILL_SLOPE 1.76, PBLUC_R_SQUARED 0.097, read-out: LUCIFERASE INFECTION ASSAY - IC50) turned out to be 9.24 µM.
For the compound `CC(C)c1noc2ncc(C(=O)Nc3ccc(Cl)c(C(F)(F)F)c3)cc12`, the IC90 was determined as 9.79 µM. The IC50 (HEPG2TOX_HILL_SLOPE 7.95, HEPG2TOX_R_SQUARED 0.873, PBLUC_HILL_SLOPE 16.7, PBLUC_R_SQUARED 0.65, read-out: LUCIFERASE INFECTION ASSAY - IC50) is 8.58 µM.
